# Like-named read-outs stand apart in the source and are kept apart here.
# Assays:
# SiHa cells [1] = experiment: IC50 assay modified for chronic hypoxia (oxia, hypoxia, anoxia); assay type: cell-based; details: for IC50: Homo sapiens
# Method: There are relatively few viable cells in tumors at O2 concentrations as low as in the above anoxic experiments. In addition, extensive changes in gene expression occur under chronic exposure to intermediate O2 concentrations (chronic hypoxia), including the expression of proteins that regulate pHi. […] Therefore, oxic and anoxic exposures were also tested in these same experiments. The 24 h adaptation to hypoxia had little effect on the subsequent growth of the cultures at either pHe value (Figure S6).
# To minimize problems with poor cell attachment under chronic hypoxia, the drugs were added from a 3-fold dilution series made in a separate plate, rather than by serial dilution in the plates containing the cells. In addition, the drugs were removed after the 4 h exposure by centrifuging the plates (200g × 5 min) prior to each aspiration. The same modifications were used for the oxic drug exposures in these experiments.
# SiHa cells [2] = experiment: IC50 assay (inhibition of proliferation, 4 h exposure, SRB); details: SiHa; for IC50: Homo sapiens, 4 h
# How it was run: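 Cells exposed to compound for 4 h in titrated medium, then washed and regrown 5 days under standard conditions (oxia, pHe 7.4). Growth read by sulforhodamine B staining; IC50 from 4-parameter logistic regression of duplicate cultures.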
# UT-SCC-74B cells = experiment: as above; assay type: cell-based; details: UT-SCC-74B, UT-SCC-74B; for IC50: Homo sapiens, 4 h
# Method: Cells were seeded in 96-well plates (SiHa or FaDu 1500 cells/well, UT-SCC-74B 800 cells/well) in 100 μL. After incubation for 2 h, the drugs were added in 50 μL of the same titrated medium at 3× the final concentration to duplicate the wells. After a further 4 h the plates were checked for drug precipitation using a phase contrast microscope, then drugs were removed by aspirating and washing with the standard (pH 7.4) medium, then aspirating again and adding 150 μL of the medium. Cultures were then grown for 5 days before staining with sulphorhodamine B and measuring absorbance, with the estimation of IC50 values using 4-parameter logistic regression, as previously carried out.
# The medium and plasticware was equilibrated in the chamber for 3 days prior to use. In the anoxia experiments, FaDu cells were plated in poly-L-lysine coated plates (Corning Cat # 356461) to improve attachment. […]
# Footnotes: a Number of experiments. b Anoxic cytotoxicity ratio = oxic IC50/anoxic IC50. c pH
# cytotoxicity ratio = IC50 at pHe 7.4/ IC50 at pHe 6.5. d Overall ratio = oxic IC50 pHe 7.4 / anoxic IC50 pHe
# 6.5. Values are means and errors are SEM. For ratios, the errors are root mean square SEM. […]
# SiHa and FaDu cells = experiment: IC50 assay, summary statements over both cell lines; assay type: cell-based; details: read-out: Potency (IC50) under anoxia at pHe 6.5
# [3] = design: method as in PMID 24737463; details: cited from earlier work
# [4] = pulse radiolysis, redox indicator MV^2+; cited from earlier work
# SiHa and SiHa/POR cells = experiment: IC50 in SiHa versus SiHa/POR cultures under anoxia; assay type: cell-based; details: 4 h under anoxia, pHe 7.4
# Method: The lack of effect of POR over-expression on the reductive metabolism of the BTO acids in intact cells led us to compare the cytotoxicities of SN30000 (2), 4a, and 7a in SiHa/POR, and the parental line, under anoxia (Figure 6).
# Drug exposure was for 4 h under anoxia, at pHe 7.4, with regrowth under aerobic conditions for 5 days before staining with SRB. Values are means and SEM for the two experiments, each with triplicate cultures at each drug concentration. TEXT PRINTED IN THE PICTURE: Cmpd 2: Ratio 6.75 ± 0.20 | Cmpd 4a: Ratio 3.40 ± 0.22 | Cmpd 7a: Ratio 2.67 ± 0.46
# FaDu cells = experiment: IC50 assay (inhibition of proliferation, 4 h exposure, SRB); assay type: cell-based; details: for IC50: Homo sapiens, 4 h
# [5] = test system: MDCK-II cells with forced expression of BCRP or Pgp; experiment: IC50 under anoxia in cells with forced expression of efflux transporters; details: MDCK-II cell lines under anoxia, preliminary experiments
# SiHa cells [6] = experiment: Cellular uptake in stirred aerobic single cell suspensions (HPLC, 3H-mannitol correction)
# [7] = design: method as in PMID 28848445; details: cited from earlier work
# [8] = read-out: Anoxic IC50, SiHa, pHe 6.5, 4 h, anoxic
# [9] = read-out: Anoxic IC50, SiHa, pHe 7.4, 4 h, anoxic
# [10] = read-out: Oxic IC50, SiHa, pHe 6.5, 4 h, oxic
# [11] = read-out: Oxic IC50, SiHa, pHe 7.4, 4 h, oxic
# [12] = pHe 6.5, 4 h, anoxic, read-out: Anoxic IC50
# [13] = pHe 6.5, 4 h, oxic, read-out: Oxic IC50
# [14] = pHe 7.4, 4 h, anoxic, read-out: Anoxic IC50
# [15] = pHe 7.4, 4 h, oxic, read-out: Oxic IC50
compound,measurement,setting,value
"[O-][n+]1nc(CCCN2CCOCC2)[n+]([O-])c2cc3c(cc21)CCC3 [Compound 2, SN30000, reference compound]",PCR (IC50 for pHe 7.4/IC50 for pHe 6.5),SiHa cells [1]; 0.2% O2,1.76 ± 0.43
same,HCR,"SiHa cells [1]; 0.2% O2, both pHe values",approximately 20
same,PCR (IC50 for pHe 7.4/IC50 for pHe 6.5),SiHa cells [1]; 20% O2,1.95 ± 0.66
same,PCR (IC50 for pHe 7.4/IC50 for pHe 6.5),SiHa cells [1]; <0.01% O2,0.84 ± 0.15
same,IC50,"SiHa cells [1]; 0.2% O2 (24 h before and during 4 h exposure), pHe 6.5",9.88 ± 2.34 µM
same,IC50,"SiHa cells [1]; 0.2% O2 (24 h before and during 4 h exposure), pHe 7.4",17.4 ± 1.02 µM
same,IC50,"SiHa cells [1]; 4 h, 20% O2, pHe 6.5, 4 h",207 ± 69 µM
same,IC50,"SiHa cells [1]; 4 h, 20% O2, pHe 7.4, 4 h",404 ± 21 µM
same,IC50,"SiHa cells [1]; 4 h, <0.01% O2, pHe 6.5, 4 h",3.07 ± 0.38 µM
same,IC50,"SiHa cells [1]; 4 h, <0.01% O2, pHe 7.4, 4 h",2.59 ± 0.35 µM
same,ACR (IC50 for 20% O2/IC50 for <0.01% O2),SiHa cells [1]; pHe 6.5,67 ± 24
same,HCR (IC50 for 20% O2/IC50 for 0.2% O2),SiHa cells [1]; pHe 6.5,20.1 ± 8.6
same,ACR (IC50 for 20% O2/IC50 for <0.01% O2),SiHa cells [1]; pHe 7.4,156 ± 23
same,HCR (IC50 for 20% O2/IC50 for 0.2% O2),SiHa cells [1]; pHe 7.4,23.2 ± 1.8
same,IC50,SiHa cells [2]; [8],5.52 ± 2.01 µM
same,IC50,SiHa cells [2]; [9],2.87 ± 0.23 µM
same,IC50,SiHa cells [2]; [10],253 ± 31 µM
same,IC50,SiHa cells [2]; [11],292 ± 15 µM
same,TMR (overall TME ratio = oxic IC50 pHe 7.4/anoxic IC50 pHe 6.5),SiHa cells [2],53 ± 19
same,PCR Anoxic (IC50 at pHe 7.4/IC50 at pHe 6.5),SiHa cells [2],0.52 ± 0.19
same,PCR oxic (IC50 at pHe 7.4/IC50 at pHe 6.5),SiHa cells [2],1.15 ± 0.15
same,ACR (anoxic cytotoxicity ratio = oxic IC50/anoxic IC50),SiHa cells [2]; pHe 6.5,46 ± 18.0
same,ACR (anoxic cytotoxicity ratio = oxic IC50/anoxic IC50),SiHa cells [2]; pHe 7.4,101 ± 10
same,PCR (pH cytotoxicity ratio),"SiHa cells [2]; representative experiment (Figure 3), oxia and anoxia",little or no dependence on pHe
same,ACR (anoxia cytotoxicity ratio),"SiHa cells [2]; representative experiment (Figure 3), pHe 7.4 and 6.5",approximately 140
same,IC50,"UT-SCC-74B cells; pHe 6.5, 4 h, 20% O2, read-out: Oxic IC50",190 ± 42 µM
same,IC50,"UT-SCC-74B cells; pHe 6.5, 4 h, <0.01% O2, read-out: Anoxic IC50",6.29 ± 1.79 µM
same,IC50,"UT-SCC-74B cells; pHe 7.4, 4 h, 20% O2, read-out: Oxic IC50",477 ± 65 µM
same,IC50,"UT-SCC-74B cells; pHe 7.4, 4 h, <0.01% O2, read-out: Anoxic IC50",5.92 ± 2.42 µM
same,TME ratio (oxic IC50 pHe 7.4/anoxic IC50 pHe 6.5),UT-SCC-74B cells,75.8 ± 23.9
same,PCR Anoxic (IC50 at pHe 7.4/IC50 at pHe 6.5),UT-SCC-74B cells; anoxic,0.94± 0.47
same,PCR oxic (IC50 at pHe 7.4/IC50 at pHe 6.5),UT-SCC-74B cells; oxic,2.51 ± 0.65
same,ACR (oxic IC50/anoxic IC50),UT-SCC-74B cells; pHe 6.5,30.2 ± 10.9
same,ACR (oxic IC50/anoxic IC50),UT-SCC-74B cells; pHe 7.4,80.6 ± 34.7
same,IC50,SiHa and FaDu cells,2.9 to 8.6 µM
same,pKa of the radical anion,[3],5.48 ± 0.26
same,E^0′ one-electron reduction potential,[4],−401 ± 8 [MV^2+] ^g mV
same,IC50 ratio SiHa / SiHa/POR (fold lower IC50 in POR cell line),SiHa and SiHa/POR cells,6.75 ± 0.20
same,IC50 ratio SiHa / SiHa/POR (fold lower IC50 in POR cell line),SiHa and SiHa/POR cells; listed as SN30000,6.75
same,TMR (oxic IC50 pHe 7.4/anoxic IC50 pHe 6.5),FaDu cells,29.8 ± 5.7
same,IC50,FaDu cells; [12],8.63 ± 1.55 µM
same,IC50,FaDu cells; [13],277 ± 15 µM
same,IC50,FaDu cells; [14],4.16 ± 0.35 µM
same,IC50,FaDu cells; [15],258 ± 15 µM
same,PCR Anoxic (IC50 at pHe 7.4/IC50 at pHe 6.5),FaDu cells; anoxic,0.48 ± 0.10
same,PCR oxic (IC50 at pHe 7.4/IC50 at pHe 6.5),FaDu cells; oxic,0.93 ± 0.08
same,ACR (oxic IC50/anoxic IC50),FaDu cells; pHe 6.5,32.1 ± 6.04
same,ACR (oxic IC50/anoxic IC50),FaDu cells; pHe 7.4,62.0 ± 6.34
same,Effect of overexpression of BCRP or Pgp efflux transporters on sensitivity,[5],no effect
same,Uptake (Ci/Ce) at 4 °C relative to 37 °C,"SiHa cells [6]; SiHa cell suspensions, data not shown",minor increase
same,Ci ratio (Ci at pHe 6.5/Ci at pHe 7.4),"SiHa cells [6]; aerobic SiHa suspensions, 5 min",1.09 ± 0.09 fold
same,Ci ratio (Ci at pHe 6.5/Ci at pHe 7.4),"SiHa cells [6]; aerobic SiHa suspensions, 60 min",0.95 ± 0.07 fold
same,"Ci/Ce, pHe 6.5 Obs 5 min","SiHa cells [6]; aerobic SiHa suspensions, pHe 6.5, 5 min",2.75 ± 0.07
same,"Ci/Ce, pHe 6.5 Obs 60 min","SiHa cells [6]; aerobic SiHa suspensions, pHe 6.5, 60 min",2.37 ± 0.02
same,"Ci/Ce, pHe 7.4 Obs 5 min","SiHa cells [6]; aerobic SiHa suspensions, pHe 7.4, 5 min",2.48± 0.27
same,"Ci/Ce, pHe 7.4 Obs 60 min","SiHa cells [6]; aerobic SiHa suspensions, pHe 7.4, 60 min",2.49 ± 0.05
"Nc1n[n+]([O-])c2ccccc2[n+]1[O-] [Compound 3, tirapazamine, reference compound]",IC50,SiHa cells [2]; [8],2.9 ± 0.38 µM
same,IC50,SiHa cells [2]; [9],2.81 ± 0.3 µM
same,IC50,SiHa cells [2]; [10],91 ± 21 µM
same,IC50,SiHa cells [2]; [11],162 ± 8 µM
same,TMR (overall TME ratio = oxic IC50 pHe 7.4/anoxic IC50 pHe 6.5),SiHa cells [2],56 ± 8
same,PCR Anoxic (IC50 at pHe 7.4/IC50 at pHe 6.5),SiHa cells [2],0.97 ± 0.16
same,PCR oxic (IC50 at pHe 7.4/IC50 at pHe 6.5),SiHa cells [2],1.77 ± 0.42
same,IC50,"SiHa and FaDu cells; SiHa and FaDu, anoxia, pHe 6.5",2.9 to 8.6 µM
same,E^0′ one-electron reduction potential,[4],−456 ± 8 [MV^2+] ^h mV
same,TMR (oxic IC50 pHe 7.4/anoxic IC50 pHe 6.5),FaDu cells,26.2 ± 5.9
same,IC50,FaDu cells; [12],6.96 ± 1.38 µM
same,IC50,FaDu cells; [13],127 ± 14 µM
same,IC50,FaDu cells; [14],5.9 ± 0.48 µM
same,IC50,FaDu cells; [15],182 ± 20 µM
same,PCR Anoxic (IC50 at pHe 7.4/IC50 at pHe 6.5),FaDu cells; anoxic,0.85 ± 0.18
same,PCR oxic (IC50 at pHe 7.4/IC50 at pHe 6.5),FaDu cells; oxic,1.43 ± 0.22
same,ACR (oxic IC50/anoxic IC50),FaDu cells; pHe 6.5,18.3 ± 4.1
same,ACR (oxic IC50/anoxic IC50),FaDu cells; pHe 7.4,30.9 ± 4.2
"O=C(O)CCc1nc2cc3c(cc2[n+]([O-])n1)CCC3 [Compound 15d, 3-(2-Carboxyethyl)-7,8-dihydro-6H-indeno[5,6-e][1,2,4]triazine 1-Oxide]",Protein bound in mouse plasma,[7],> 90%

# Source: PMC6680510, “Benzotriazine Di-Oxide Prodrugs for Exploiting Hypoxia and Low Extracellular pH in Tumors” (Molecules, 2019)
